In patent publication US9926267B2, “Covalent inhibitors of K-Ras G12C” (Araxes Pharma LLC, priority 2013, dated 2018) one finds Binding % data, which are given here for 28 compounds.

The target of the test is T1, KRAS G12C 1-169, his-tagged protein, GDP-loaded (Homo sapiens, UniProt P01116, G12C).
T1 construct: KRAS G12C 1-169, his-tagged protein, GDP-loaded
The test can be described thus: Biochemical assay: covalent binding to KRAS G12C, measured by mass spectrometry. How it is done: Test compounds were prepared as 10 mM stock solutions in DMSO (Fisher cat#BP-231-100). KRAS G12C 1-169, his-tagged protein, GDP-loaded was diluted to 2 μm in buffer (20 mM Hepes, 150 mM NaCl, 1 mM MgCl2). Compounds were tested for activity as follows:
Compounds were diluted to 50× final test concentration in DMSO in 96-well storage plates. Compound stock solutions were vortexed before use and observed carefully for any sign of precipitation. Dilutions were as follow: • For 100 μM final compound concentration, compounds were diluted to 5000 μM (5 μl 10 mM compound stock+5 μl DMSO and mixed well by pipetting. • For 30 μM final compound concentration, compounds were diluted to 1500 μM (3 μl 10 mM compound stock+17 μl DMSO) and mixed well by pipetting. • For […] final compound concentration, compounds were diluted to 500 μM (2 μl 10 mM compound stock+38 μl DMSO) and mixed well by pipetting. 49 μl of the stock protein solution was added to each well of a 96-well PCR plate (Fisher cat#1423027). 1 μl of the diluted 50× compounds were added to appropriate wells in the PCR plate using 12-channel pipettor. Reactions were mixed carefully and thoroughly by pipetting up/down with a 200 μl multi-channel pipettor. The plate was sealed well with aluminum plate seal, and stored in a drawer at room temperature for 2 hrs or 24 hrs. 5 μl of 2% formic acid (Fisher cat#A117) in DI H2O was then added to each well followed by mixing with a pipette. The plate was then resealed with aluminum seal and stored on dry ice until analyzed as described below.
The above described assays were analyzed by mass spectrometry according to the following procedure:
The MS instrument is set to positive polarity, 2 GHz resolution, and low mass (1700) mode and allowed to equilibrate for 30 minutes. The instrument is then calibrated, switched to acquisition mode and the appropriate method loaded.
After another 30 minute equilibration time, a blank batch (i.e., buffer) is run to ensure equipment is operating properly. The samples are thawed at 37° C. for 10 minutes, briefly centrifuged, and transfer to the bench top. Wells A1 and H12 are spiked with 1 uL 500 uM internal standard peptide, and the plates centrifuged at 2000×g for 5 minutes. The method is then run and masses of each individual well recorded.
The masses (for which integration data is desired) for each well are pasted into the platemap and exported from the analysis. Masses for the internal standards are exported as well. The data at 50 ppm is extracted for the +19 charge state, and identity of well A1 is assigned using the internal standard spike and integrated. Peak data is exported as a TOF list and the above steps are repeated individually, for the +20, 21, 22, 23, 24, and charge states.

The mark [1] stands for this setting: Binding activity determined at 24 hrs, Table 8a.
The mark [2] stands for this setting: Binding activity determined at 2 hrs, Table 8b.
The mark [3] stands for this setting: Binding activity determined at 24 hrs, Table 7a.

T1 sequence (P01116 1-169 isoform P01116-2 G12C): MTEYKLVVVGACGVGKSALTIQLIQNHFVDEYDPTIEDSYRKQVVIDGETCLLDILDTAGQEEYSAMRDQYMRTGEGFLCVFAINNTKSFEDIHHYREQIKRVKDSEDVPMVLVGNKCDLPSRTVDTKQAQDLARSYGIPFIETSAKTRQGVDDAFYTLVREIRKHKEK

As to `C=CC(=O)N1CCN(C(=O)c2cc(-c3ccccc3Cl)c(Cl)cc2O)CC1` [VI-3, 1-(4-(2′,6-Dichloro-4-hydroxy-[1,1′-biphenyl]-3-carbonyl)piperazin-1-yl)prop-2-en-1-one], the Binding % result under setting [1] is “++++ (++++ indicates binding activity greater than 30%)”.
`C=CC(=O)N1CCN(C(=O)c2cc(O)cc(-c3ccccc3Cl)c2)CC1` [VI-25, 1-(4-(2′-Chloro-5-hydroxy-[1,1′-biphenyl]-3-carbonyl)piperazin-1-yl)prop-2-en-1-one]: the Binding % entry under setting [1] is “+++ (+++ indicates binding activity greater than 20% and up to 30%)”.
As to `C=CC(=O)N1CCN(C(=O)c2cc(-c3ccccc3Cl)c(C)[nH]2)CC1` [VI-23, 1-(4-(4-(2-chlorophenyl)-5-methyl-1H-pyrrole-2-carbonyl)piperazin-1-yl)prop-2-en-1-one], the Binding % result under setting [1] was “+++ (+++ indicates binding activity greater than 20% and up to 30%)”.
For the compound `C=CC(=O)NC1CN(C(=O)c2cc(-c3ccccc3Cl)c(Cl)cc2O)C1` [VI-13, N-(1-(2′,6-dichloro-4-hydroxybiphenyl-carbonyl)azetidin-3-yl)acrylamide], the Binding % entry under setting [1] is recorded as “+ (+ indicates binding activity from 5% to 10%)”.
In the case of `C=CC(=O)N1CCN(C(=O)c2ccc(Cl)c(Cl)c2)CC1` [VI-36, 1-(4-(3,4-dichlorobenzoyl)piperazin-1-yl)prop-2-en-1-one], the Binding % result under setting [1] is listed as “+ (+ indicates binding activity from 5% to 10%)”.
As to `C=CC(=O)N1CCN(C(=O)c2cc(-c3cc(Cl)ccc3Cl)c(Cl)cc2O)CC1C#N` (stereo not shown) [VI-38, 1-acryloyl-4-(2′,5′,6-trichloro-4-hydroxybiphenyl-carbonyl)piperazine-2-carbonitrile], the Binding % result under setting [2] was “++ (++ indicates binding activity greater than 20%)”.
For the compound `C=CS(=O)(=O)NC1CCN(C(=O)c2ccc(Cl)c(Cl)c2)CC1` [VI-33, N-(1-(3,4-dichlorobenzoyl)piperidin-4-yl)ethenesulfonamide], the Binding % entry under setting [1] was “+ (+ indicates binding activity from 5% to 10%)”.
With `C=CC(=O)N1CCN(C(=O)c2cc(-c3ccccc3Cl)c(Cl)cc2OC)CC1` [VI-1, 1-(4-(2′,6-dichloro-4-methoxybiphenyl-carbonyl)piperazin-1-yl)prop-2-en-1-one], the Binding % result under setting [1] was “+ (+ indicates binding activity from 5% to 10%)”.
Turning to `C=CC(=O)N1CCN(C(=O)c2ccc(Cl)c(-c3ccccc3Cl)c2)CC1` [VI-12, 1-(4-(2′,6-dichlorobiphenyl-carbonyl)piperazin-1-yl)prop-2-en-1-one], the Binding % entry under setting [1] was “+++ (+++ indicates binding activity greater than 20% and up to 30%)”.
In the case of `C=CC(=O)N1CCN(C(=O)c2cc(-c3ccccc3Cl)ccc2O)CC1` [VI-26, 1-(4-(2′-chloro-4-hydroxybiphenyl-carbonyl)piperazin-1-yl)prop-2-en-1-one], the Binding % result under setting [1] was “++ (++ indicates binding activity greater than 10% and up to 20%)”.
Take `C=CC(=O)N1CCN(C(=O)c2cc(Cl)c(Cl)cc2O)CC1` [VI-8, 1-(4-(4,5-dichloro-2-hydroxybenzoyl)piperazin-1-yl)prop-2-en-1-one]: under setting [1], the Binding % result is listed as “+ (+ indicates binding activity from 5% to 10%)”.
Same read-out and setting: for `C=CC(=O)N1CCN(C(=O)c2cc(-c3ccccc3)c(Cl)cc2O)CC1` [VI-29, 1-(4-(6-chloro-4-hydroxybiphenyl-carbonyl)piperazin-1-yl)prop-2-en-1-one] the value was “+++ (+++ indicates binding activity greater than 20% and up to 30%)”; for `C=CC(=O)N1CCN(C(=O)c2cc(-c3cc(Cl)ccc3Cl)c(Cl)cc2OC)CC1CO` (stereo not shown) [VI-6, 1-(2-(hydroxymethyl)-4-(2′,5′,6-trichloro-4-methoxybiphenyl-carbonyl)piperazin-1-yl)prop-2-en-1-one], “++ (++ indicates binding activity greater than 10% and up to 20%)”.
With `C=CC(=O)N1CC(N2CCN(CCNc3cc(Cl)c(Cl)cc3O)CC2)C1` [Compound V-15, 1-(3-(4-(2-(4,5-dichloro-2-hydroxyphenyl-amino)ethyl)piperazin-1-yl)azetidin-1-yl)prop-2-en-1-one], the Binding % entry under setting [3] is “+ (+ indicates binding activity from 5% to 15%)”.
Take `C=CC(=O)N1CCN(C(=O)c2cc(-c3cc(F)ccc3Cl)c(Cl)cc2OC)CC1` [VI-4, 1-(4-(2′,6-dichloro-5′-fluoro-4-methoxybiphenyl-carbonyl)piperazin-1-yl)prop-2-en-1-one]: the Binding % result under setting [1] was “++ (++ indicates binding activity greater than 10% and up to 20%)”.
On the same count and under the same terms, for `C=CC(=O)N1CCN(C(=O)c2cc(-c3cc(Cl)ccc3Cl)c[nH]2)CC1` [VI-31, 1-(4-(4-(2,5-dichlorophenyl)-1H-pyrrole-2-carbonyl)piperazin-1-yl)prop-2-en-1-one] the value was “+ (+ indicates binding activity from 5% to 10%)”; for `C=CC(=O)N1CCN(C(=O)c2cc(-c3ccccc3Cl)n[nH]2)CC1` [VI-11, 1-(4-(3-(2-chlorophenyl)-1H-pyrazole-5-carbonyl)piperazin-1-yl)prop-2-en-1-one], “+ (+ indicates binding activity from 5% to 10%)”; for `C=CC(=O)N1CCN(C(=O)c2cc(I)c(Cl)cc2OC)CC1` [VI-2, 1-(4-(4-chloro-5-iodo-2-methoxybenzoyl)piperazin-1-yl)prop-2-en-1-one], “++ (++ indicates binding activity greater than 10% and up to 20%)”.
Take `C=CC(=O)N1CCN(C2CCN(C(=O)CNc3cc(Cl)c(Cl)cc3O)C2)CC1` (stereo not shown) [Compound V-4, 1-(4-(1-(2-(4,5-dichloro-2-hydroxyphenyl-amino)acetyl)pyrrolidin-3-yl)piperazin-1-yl)prop-2-en-1-one]: under setting [3], the Binding % entry was “+++ (+++ indicates binding activity greater than 25% and up to 50%)”.
`C=CS(=O)(=O)N[C@H]1CCCN(C(=O)c2ccc(Cl)c(Cl)c2)C1` [VI-35, (S)-N-(1-(3,4-dichlorobenzoyl)piperidin-3-yl)ethenesulfonamide]: under setting [1], the Binding % result was “++ (++ indicates binding activity greater than 10% and up to 20%)”.
Turning to `C=CC(=O)N1CCN(C(=O)c2cc(-c3cc(Cl)ccc3Cl)c(Cl)cc2OC)CC1` [VI-5, 1-(4-(2′,5′,6-trichloro-4-methoxybiphenyl-carbonyl)piperazin-1-yl)prop-2-en-1-one], the Binding % result under setting [1] is on record as “++++ (++++ indicates binding activity greater than 30%)”.
On the same count and under the same terms, for `C=CC(=O)N1CCN(C(=O)c2cc(-c3ccccc3Cl)c(Cl)[nH]2)CC1` [VI-30, 1-(4-(5-chloro-4-(2-chlorophenyl)-1H-pyrrole-2-carbonyl)piperazin-1-yl)prop-2-en-1-one] the value was “++ (++ indicates binding activity greater than 10% and up to 20%)”.
`C=CC(=O)N1CCN(C(=O)c2cc(-c3ccc(Cl)cc3)c(Cl)cc2O)CC1C#N` (stereo not shown) [VI-37, 1-Acryloyl-4-(4′,6-dichloro-4-hydroxy-[1,1′-biphenyl]-3-carbonyl)piperazine-2-carbonitrile]: under setting [2], the Binding % result is “++ (++ indicates binding activity greater than 20%)”.
Consider `C=CC(=O)N1CCN(C(=O)c2cc(-c3ccccc3Cl)c[nH]2)CC1` [VI-21, 1-(4-(4-(2-chlorophenyl)-1H-pyrrole-2-carbonyl)piperazin-1-yl)prop-2-en-1-one], for which the Binding % entry under setting [1] was “++ (++ indicates binding activity greater than 10% and up to 20%)”.
Regarding `C=CC(=O)N1CCN(C(=O)c2cc(Cl)c(-c3cccc(Cl)c3)cc2O)CC1` [VI-43, 1-(4-(2,3′-dichloro-5-hydroxybiphenyl-carbonyl)piperazin-1-yl)prop-2-en-1-one], the Binding % result under setting [2] was “+ (+ indicates binding activity from 5% to 20%)”.
Regarding `C=CC(=O)N1CCN(C(=O)c2csc(-c3ccccc3Cl)n2)CC1` [VI-18, 1-(4-(2-(2-chlorophenyl)thiazole-4-carbonyl)piperazin-1-yl)prop-2-en-1-one], the Binding % result under setting [1] is given as “+ (+ indicates binding activity from 5% to 10%)”.
`C=CC(=O)N1CCN(C(=O)c2nc(-c3ccccc3Cl)cs2)CC1` [VI-19, 1-(4-(4-(2-chlorophenyl)thiazole-2-carbonyl)piperazin-1-yl)prop-2-en-1-one]: under setting [1], the Binding % result is on record as “+ (+ indicates binding activity from 5% to 10%)”.
On the same count and under the same terms, the value for `C=CC(=O)N1CCN(C(=O)c2nc(-c3ccccc3Cl)sc2Cl)CC1` [VI-20, 1-(4-(5-chloro-2-(2-chlorophenyl)thiazole-4-carbonyl)piperazin-1-yl)prop-2-en-1-one] was “+ (+ indicates binding activity from 5% to 10%)”.
